PubChem BioAssay (NCI)
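Five concentrations, 48 hours, 96-well plates. At the GI50, growth is halved. TGI: total growth inhibition.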

How the values were obtained:
Test in all cases: NCI tumour cell line growth inhibition, 48 h
786-0 renal = test system: 786-0 renal
A498 renal = test system: A498 renal
A549 NSCLC = test system: A549 NSCLC
ACHN renal = test system: ACHN renal
BT-549 breast = test system: BT-549 breast
CAKI-1 renal = test system: CAKI-1 renal
CCRF-CEM leukemia = test system: CCRF-CEM leukemia
COLO 205 colon = test system: COLO 205 colon
DU-145 prostate = test system: DU-145 prostate
EKVX NSCLC = test system: EKVX NSCLC
HCC-2998 colon = test system: HCC-2998 colon
HCT-116 colon = test system: HCT-116 colon
HCT-15 colon = test system: HCT-15 colon
HL-60(TB) leukemia = test system: HL-60(TB) leukemia
HOP-62 NSCLC = test system: HOP-62 NSCLC
HOP-92 NSCLC = test system: HOP-92 NSCLC
HS 578T breast = test system: HS 578T breast
HT29 colon = test system: HT29 colon
IGROV1 ovarian = test system: IGROV1 ovarian
K-562 leukemia = test system: K-562 leukemia
KM12 colon = test system: KM12 colon
LOX IMVI melanoma = test system: LOX IMVI melanoma
M14 melanoma = test system: M14 melanoma
MALME-3M melanoma = test system: MALME-3M melanoma
MCF7 breast = test system: MCF7 breast
MDA-MB-231 breast = test system: MDA-MB-231 breast
MDA-MB-435 = test system: MDA-MB-435
MOLT-4 leukemia = test system: MOLT-4 leukemia
NCI-H226 lung = test system: NCI-H226 lung
NCI-H23 lung = test system: NCI-H23 lung
NCI-H460 lung = test system: NCI-H460 lung
NCI-H522 lung = test system: NCI-H522 lung
NCI/ADR-RES ovarian = test system: NCI/ADR-RES ovarian
OVCAR-3 ovarian = test system: OVCAR-3 ovarian
OVCAR-4 ovarian = test system: OVCAR-4 ovarian
OVCAR-5 ovarian = test system: OVCAR-5 ovarian
OVCAR-8 ovarian = test system: OVCAR-8 ovarian
PC-3 prostate = test system: PC-3 prostate
SF-268 CNS = test system: SF-268 CNS
SF-295 CNS = test system: SF-295 CNS
SF-539 CNS = test system: SF-539 CNS
SK-MEL-2 melanoma = test system: SK-MEL-2 melanoma
SK-MEL-28 melanoma = test system: SK-MEL-28 melanoma
SK-MEL-5 melanoma = test system: SK-MEL-5 melanoma
SK-OV-3 ovarian = test system: SK-OV-3 ovarian
SN12C renal = test system: SN12C renal
SNB-19 CNS = test system: SNB-19 CNS
SNB-75 CNS = test system: SNB-75 CNS
SR leukemia = test system: SR leukemia
SW-620 colon = test system: SW-620 colon
T-47D breast = test system: T-47D breast
TK-10 renal = test system: TK-10 renal
U251 CNS = test system: U251 CNS
UACC-257 melanoma = test system: UACC-257 melanoma
UACC-62 melanoma = test system: UACC-62 melanoma
UO-31 renal = test system: UO-31 renal

With COc1ccccc1N1CCN(CC(O)COc2c(Br)c(Br)c(Br)c3c2OC(C)(C)C3)CC1 (configuration not stated) the GI50 (786-0 renal) was 12.8 µM, the TGI (786-0 renal) was 29.6 µM and the GI50 (A498 renal) was 20.4 µM. It also gave a TGI (A498 renal) of 47.9 µM, a GI50 (A549 NSCLC) of 16.6 µM and a TGI (A549 NSCLC) of 96.5 µM. It also gave a GI50 (ACHN renal) of 14.2 µM, a TGI (ACHN renal) greater than 100 µM and a GI50 (BT-549 breast) of 12.5 µM. It also gave a TGI (BT-549 breast) of 34.1 µM, a GI50 (CAKI-1 renal) of 4.56 µM and a TGI (CAKI-1 renal) of 12.3 µM. It also gave a GI50 (CCRF-CEM leukemia) of 92.2 µM, a TGI (CCRF-CEM leukemia) greater than 100 µM and a GI50 (COLO 205 colon) of 12.4 µM. The TGI (COLO 205 colon) was 30.4 µM, the GI50 (DU-145 prostate) was 16.5 µM and the TGI (DU-145 prostate) was 37.3 µM. The GI50 (EKVX NSCLC) was 8.85 µM, the TGI (EKVX NSCLC) was greater than 100 µM and the GI50 (HCC-2998 colon) was 4.57 µM. It also gave a TGI (HCC-2998 colon) of 16.5 µM, a GI50 (HCT-116 colon) of 4.45 µM and a TGI (HCT-116 colon) of 20.1 µM. The GI50 (HCT-15 colon) was 4.72 µM, the TGI (HCT-15 colon) was 24.8 µM and the GI50 (HL-60(TB) leukemia) was 5.05 µM. It also gave a TGI (HL-60(TB) leukemia) greater than 100 µM, a GI50 (HOP-62 NSCLC) of 12.6 µM and a TGI (HOP-62 NSCLC) of 30.8 µM. It also gave a GI50 (HOP-92 NSCLC) of 6.15 µM, a TGI (HOP-92 NSCLC) of 24.1 µM and a GI50 (HS 578T breast) of 15 µM. It also gave a TGI (HS 578T breast) of 42 µM, a GI50 (HT29 colon) of 4.1 µM and a TGI (HT29 colon) of 14 µM. The GI50 (IGROV1 ovarian) was 12.8 µM, the TGI (IGROV1 ovarian) was 38.9 µM and the GI50 (K-562 leukemia) was 4.7 µM. The TGI (K-562 leukemia) was greater than 100 µM, the GI50 (KM12 colon) was 13.7 µM and the TGI (KM12 colon) was 56.1 µM. For the same molecule, the GI50 (LOX IMVI melanoma) was 6.38 µM, the TGI (LOX IMVI melanoma) was 18.9 µM and the GI50 (M14 melanoma) was 13.2 µM. For the same molecule, the TGI (M14 melanoma) was 37.5 µM, the GI50 (MALME-3M melanoma) was 16.1 µM and the TGI (MALME-3M melanoma) was 37.5 µM. The GI50 (MCF7 breast) was 25.5 µM, the TGI (MCF7 breast) was greater than 100 µM and the GI50 (MDA-MB-231 breast) was 12.9 µM. For the same molecule, the TGI (MDA-MB-231 breast) was 32.1 µM, the GI50 (MDA-MB-435) was 16.2 µM and the TGI (MDA-MB-435) was 55.1 µM. It also gave a GI50 (MOLT-4 leukemia) of 4.25 µM, a TGI (MOLT-4 leukemia) greater than 100 µM and a GI50 (NCI-H226 lung) of 13.2 µM. It also gave a TGI (NCI-H226 lung) of 64.5 µM, a GI50 (NCI-H23 lung) of 9.53 µM and a TGI (NCI-H23 lung) of 38.4 µM. It also gave a GI50 (NCI-H460 lung) of 8.78 µM, a TGI (NCI-H460 lung) of 54.4 µM and a GI50 (NCI-H522 lung) of 12.3 µM. The TGI (NCI-H522 lung) was 27.9 µM, the GI50 (NCI/ADR-RES ovarian) was 11.2 µM and the TGI (NCI/ADR-RES ovarian) was greater than 100 µM. For the same molecule, the GI50 (OVCAR-3 ovarian) was 14.4 µM, the TGI (OVCAR-3 ovarian) was 34.6 µM and the GI50 (OVCAR-4 ovarian) was 8.93 µM. For the same molecule, the TGI (OVCAR-4 ovarian) was greater than 100 µM, the GI50 (OVCAR-5 ovarian) was 19.4 µM and the TGI (OVCAR-5 ovarian) was greater than 100 µM. For the same molecule, the GI50 (OVCAR-8 ovarian) was 31.5 µM, the TGI (OVCAR-8 ovarian) was 94.4 µM and the GI50 (PC-3 prostate) was 6.53 µM. It also gave a TGI (PC-3 prostate) of 43.4 µM, a GI50 (SF-268 CNS) of 33.3 µM and a TGI (SF-268 CNS) greater than 100 µM. The GI50 (SF-295 CNS) was 4.68 µM, the TGI (SF-295 CNS) was 17.3 µM and the GI50 (SF-539 CNS) was 13.9 µM. It also gave a TGI (SF-539 CNS) of 32.1 µM, a GI50 (SK-MEL-2 melanoma) of 5.32 µM and a TGI (SK-MEL-2 melanoma) of 20.9 µM. It also gave a GI50 (SK-MEL-28 melanoma) of 17.3 µM, a TGI (SK-MEL-28 melanoma) of 36.8 µM and a GI50 (SK-MEL-5 melanoma) of 4.91 µM. The TGI (SK-MEL-5 melanoma) was 19.1 µM, the GI50 (SK-OV-3 ovarian) was 49.4 µM and the TGI (SK-OV-3 ovarian) was greater than 100 µM. For the same molecule, the GI50 (SN12C renal) was 14.6 µM, the TGI (SN12C renal) was 32.9 µM and the GI50 (SNB-19 CNS) was 17.9 µM. It also gave a TGI (SNB-19 CNS) of 47.3 µM, a GI50 (SNB-75 CNS) of 18.1 µM and a TGI (SNB-75 CNS) of 94.1 µM. It also gave a GI50 (SR leukemia) of 7.83 µM, a TGI (SR leukemia) greater than 100 µM and a GI50 (SW-620 colon) of 9.6 µM. It also gave a TGI (SW-620 colon) of 25.7 µM, a GI50 (T-47D breast) of 15.8 µM and a TGI (T-47D breast) greater than 100 µM. The GI50 (TK-10 renal) was 15.4 µM, the TGI (TK-10 renal) was 46.7 µM and the GI50 (U251 CNS) was 10.6 µM. The TGI (U251 CNS) was 24.2 µM, the GI50 (UACC-257 melanoma) was 23.4 µM and the TGI (UACC-257 melanoma) was greater than 100 µM. It also gave a GI50 (UACC-62 melanoma) of 12 µM, a TGI (UACC-62 melanoma) of 30.6 µM and a GI50 (UO-31 renal) of 9.66 µM. The TGI (UO-31 renal) was 27.2 µM.
